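Test compounds were applied to cells in 96-well plates for 48 hours at 5 doses. GI50 marks 50% less growth.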 The source made the active and inactive calls. Cut-off read from the data, not from the text of the source: active = GI50 up to about 1.1 µM and inactive = higher.
What was measured:
Experiment in all cases: NCI anticancer screen, dose series, 48 h
HT-29 = system: HT-29
A549 = system: A549
HCT-15 = system: HCT-15
U-251 = system: U-251
SF-539 = system: SF-539
Malme-3M = system: Malme-3M
M14 = system: M14
KM12 = system: KM12
RXF 393 = system: RXF 393
SR = system: SR
TK-10 = system: TK-10
PC-3 = system: PC-3
SK-MEL-5 = system: SK-MEL-5
SK-OV-3 = system: SK-OV-3
RPMI-8226 = system: RPMI-8226
OVCAR-8 = system: OVCAR-8
NCI/ADR-RES = system: NCI/ADR-RES
HOP-62 = system: HOP-62
IGROV-1 = system: IGROV-1
SNB-75 = system: SNB-75

Row | Structure (SMILES) | GI50 (HT-29) | GI50 (A549) | GI50 (HCT-15) | GI50 (U-251) | GI50 (SF-539) | GI50 (Malme-3M) | GI50 (M14) | GI50 (KM12) | GI50 (RXF 393) | GI50 (SR) | GI50 (TK-10) | GI50 (PC-3) | GI50 (SK-MEL-5) | GI50 (SK-OV-3) | GI50 (RPMI-8226) | GI50 (OVCAR-8) | GI50 (NCI/ADR-RES) | GI50 (HOP-62) | GI50 (IGROV-1) | GI50 (SNB-75)
1 | CC(=O)Oc1ccc2c(C)cc(=O)oc2c1 | > 100 µM (inactive) | > 100 µM (inactive) | > 100 µM | > 100 µM (inactive) | > 100 µM (inactive) | > 100 µM (inactive) | > 100 µM (inactive) | > 100 µM (inactive) | > 100 µM (inactive) | > 100 µM (inactive) | > 100 µM (inactive) | > 100 µM (inactive) | > 100 µM (inactive) | > 100 µM (inactive) | > 100 µM (inactive) | > 100 µM (inactive) | > 100 µM (inactive) | > 100 µM (inactive) | > 100 µM (inactive) | > 100 µM (inactive)
2 | N=C(N)SCc1ccc(Cl)c2ccccc12.O=[N+]([O-])c1ccc(O)c([N+](=O)[O-])c1 | 11.4 µM (inactive) | 16.9 µM (inactive) | 14.5 µM | 11.4 µM (inactive) | 5.2 µM (inactive) | 10 µM (inactive) | 13 µM (inactive) | 12.3 µM (inactive) | 8.02 µM (inactive) | 1.04 µM (active) | 6.84 µM (inactive) | 12.6 µM (inactive) | 8.61 µM (inactive) | 15.3 µM (inactive) | 1.32 µM (inactive) | 22.1 µM (inactive) | 16.7 µM (inactive) | 14.1 µM (inactive) | 14.2 µM (inactive) | 4.56 µM (inactive)
3 | CC1=C(C#N)C(C#N)(C#N)C(NN(C)C)C1 (stereo not given) | 15.4 µM (inactive) | 41.5 µM (inactive) | 7.38 µM | 33.9 µM (inactive) | 36.1 µM (inactive) | 17.7 µM (inactive) | 29 µM (inactive) | 16.6 µM (inactive) | 13 µM (inactive) | 25.4 µM (inactive) | 17 µM (inactive) | 20.4 µM (inactive) | 4.49 µM (inactive) | > 100 µM (inactive) | 10.9 µM (inactive) | 26.3 µM (inactive) | 23.8 µM (inactive) | 16.7 µM (inactive) | 17.8 µM (inactive) | 21.4 µM (inactive)
4 | CC1=CCC([C@@](C)(O)CCCC(C)(C)N=C=S)CC1 (stereo not given in full) | 17.7 µM (inactive) | 17.6 µM (inactive) | 18.5 µM | 18.8 µM (inactive) | 19.2 µM (inactive) | 14.8 µM (inactive) | 17.1 µM (inactive) | 15.5 µM (inactive) | 13.7 µM (inactive) | 19.8 µM (inactive) | 22 µM (inactive) | 18.6 µM (inactive) | 15.4 µM (inactive) | 17.9 µM (inactive) | 25.7 µM (inactive) | 17.7 µM (inactive) | 19.6 µM (inactive) | 22.6 µM (inactive) | 20.2 µM (inactive) | 17.8 µM (inactive)
5 | O=C1C(Br)=Cc2c(Cl)sc(Cl)c21 | 4.58 µM (inactive) | 24.6 µM (inactive) | 3.69 µM | 2.59 µM (inactive) | 4.24 µM (inactive) | 8.67 µM (inactive) | 7.05 µM (inactive) | 6.5 µM (inactive) | 2.46 µM (inactive) | 2.15 µM (inactive) | 2.17 µM (inactive) | 2.55 µM (inactive) | 19.5 µM (inactive) | 15.5 µM (inactive) | 0.668 µM (active) | 3.24 µM (inactive) | 8.65 µM (inactive) | 7.45 µM (inactive) | 2.59 µM (inactive) | 13.3 µM (inactive)
6 | CN(/N=C/c1ccccn1)C1=NCCCCN1 | > 100 µM (inactive) | > 100 µM (inactive) | > 100 µM | > 100 µM (inactive) | > 100 µM (inactive) | > 100 µM (inactive) | > 100 µM (inactive) | > 100 µM (inactive) | > 100 µM (inactive) | > 100 µM (inactive) | > 100 µM (inactive) | > 100 µM (inactive) | > 100 µM (inactive) | > 100 µM (inactive) | > 100 µM (inactive) | > 100 µM (inactive) | > 100 µM (inactive) | > 100 µM (inactive) | > 100 µM (inactive) | > 100 µM (inactive)

Reference: ChEMBL document CHEMBL1201862, “PubChem BioAssay data set” (2004)
